Test results from US9499494B2, “Pyrimidine-2,4,6-triones for use in the treatment of amyotrophic lateral sclerosis” (Northwestern University, priority 2009, dated 2016).
Where a SMILES comes first, the peptide text is derived from it. The star is where a group is joined. Cbz = O=C(OCc1ccccc1)*

Legend:
Format in all cases: cell-based
[1] = system: PC12 cells that express mutant G93A SOD1 as a YFP fusion protein; assay: high throughput cytotoxicity protection assay; details: for EC50: Rattus norvegicus, PC-12, Table 1, fluorinated PYT compounds
From the text: Cultured cells are utilized to conduct high throughput assays for compounds that protect against mutant SOD1-induced cytotoxicity. Two assays are used: first, in the cytotoxicity protection assay, compounds are screened for their ability to protect cells from the cytotoxic effects of aggregated mutant SOD1, irrespective of mechanism of drug action. Second, in the protein aggregation assay, compounds are screened for their ability to reduce aggregation of mutant SOD1. The high throughput cytotoxicity protection assay is the primary screen and compounds active in the primary screen (and their analogs) move forward into the secondary screen for protein aggregation.
(§1) The high throughput cytotoxicity protection assay was carried out in PC12 cells that express mutant G93A SOD1 as a YFP fusion protein from a doxycycline-inducible promoter (Matsumoto et al., J. Cell. Biol. 2005, 171, 75). […] This idea was tested by examining the sensitivity of PC12 cells to SOD1 aggregates in the presence and absence of proteasome inhibitor MG132. PC12 cells expressing no SOD1, wild type SOD1, G85R SOD1 or G93A SOD1 were grown with or without MG132 (FIG. 1). […] In these cells, protein aggregation was detected after 24 h and loss of cell viability was detected at approximately 48 h. […] The ability of protein aggregates to induce cell death was examined by treating G93A SOD1-expressing cells with MG132 for 24 h, removing the MG132 by washing and assaying cell viability after another 24 h. Because the loss of cell viability was similar following MG132 removal (FIG. 1, part C), it is likely that mutant SOD1 aggregates contribute directly to cytotoxicity in PC12 cells.
(§2) PC12 cells expressing G93A SOD1 were treated with 100 nM MG132 with or without co-treatment with geldanamycin or radicicol. […] Statistical analysis of the data produced a Z′ value of 0.55, which would predict good performance as a positive control in a high throughput screen (Zhang et al. J. Biomol. Screen 1999, 4(2), 67-73).

[2] = system: PC12 cells expressing G93A SOD1; assay: sensitivity of PC12 cells to proteasome inhibitor (cell viability)
Description: as §1

[3] = system: PC12 cells expressing no SOD1, wild type SOD1 and G85R SOD1; assay: as above; details: Rattus norvegicus, PC-12
Description: as §1

[4] = system: PC12 cells expressing G85R SOD1; assay: mutant SOD1 direct protein aggregation assay
From the text: Compounds that are active in the above assay could theoretically protect against mutant SOD1-induced cytotoxicity through a number of mechanisms, including the following: 1) Compounds could nonspecifically block or reverse protein aggregation via chaperone induction, as observed for radicicol and geldanamycin 2) Compounds could block or reverse the aggregation of a specific aggregated protein form 3) Compounds could interfere with an event downstream of protein aggregation that plays a critical role in mutant SOD1-induced cytotoxicity (e.g., proteasome function). 4) Compounds could act directly on SOD1 in a manner that prevents mutant SOD1 aggregation. These possibilities were tested using an assay that directly measures protein aggregation. In addition, unlike the high throughput cytotoxicity protection assay, the protein aggregation assay is based on G85R SOD1; this broadens the scope of the screening strategy, and should eliminate compounds with highly specific activity (i.e., G93A SOD1 limited) against protein aggregation.
In PC12 cells that express wild-type SOD1, SOD1 was diffusely localized throughout the cell (Matsumoto et al. J. Cell. Biol 2005, 171(1), 75-85). […]
To allow this assay to be used in a high-throughput manner, a Cellomics Arrayscan® high content microscopy system was used for screening and quantification. […]

[5] = system: PC12 cells expressing G93A mutant SOD1; assay: mutant SOD1 protein aggregation in G93A cells
Description: as §2
In PC12 cells that express wild-type SOD1, SOD1 was diffusely localized throughout the cell (Matsumoto et al. J. Cell. Biol 2005, 171(1), 75-85). […] Therefore, these effects are likely to be due to MG132-induced proteasome inhibition, and not due to an off-target effect of MG132.
The identification of a positive control is a crucial step in assay development. Thus, PC12 cells expressing G85R or G93A mutant SOD1 were treated with MG132 to induce protein aggregation, and then co-treated with candidate chemical suppressors of protein aggregation. […] Both compounds induce heat shock transcription factor HSF-1, which in turn induces the heat shock response (FIG. 4). Treatment with radicicol reduced the proportion of cells with aggregates from 75% to 25%, a sufficient difference to allow visual scoring for compounds with efficacy equal to or greater than radicicol.

[6] = G93A SOD1 cells treated with 100 nM MG132, co-treatment

O=C1CC(=O)N(CC(F)(F)c2ccc(F)c(F)c2)C(=O)N1CC(F)(F)c1ccc(F)c(F)c1
EC50 [1]: 2 to 8 µM

CC(C)C[C@@H](C=O)NC(=O)[C@H](CC(C)C)NC(=O)[C@H](CC(C)C)NC(=O)OCc1ccccc1 [MG132] (Cbz-Leu-Leu-Leu-aldehyde)
fold more sensitive than cells expressing no SOD1, wild type SOD1 or G85R SOD1 ([2]; G93A SOD1 cells): approximately 5 fold
IC50 ([2]; Rattus norvegicus, PC-12, read-out: IC50 (cell viability)): ~75 nM
IC50 [3]: ~400 nM
cells containing protein aggregates ([4]; cells expressing G85R SOD1 treated with MG132): up to 75%
cells with protein aggregates ([5]; cells expressing G93A mutant SOD1 following treatment with MG132): ~75%

O=C1CC(=O)N(CC(F)(F)c2ccc(Cl)c(Cl)c2)C(=O)N1CC(F)(F)c1ccc(Cl)c(Cl)c1
EC50 [1]: 2 to 8 µM

C[C@@H]1C[C@H]2O[C@@H]2/C=C\C=C\C(=O)Cc2c(Cl)c(O)cc(O)c2C(=O)O1 [radicicol]
cell viability [1, 6]: increased cell viability in a dose-dependent manner
proportion of cells with aggregates after treatment ([4]; PC12 cells expressing G85R or G93A mutant SOD1, MG132-treated, 75% without co-treatment): 25%
formation of protein aggregates [5, 6]: reduced formation of protein aggregates

O=C1CC(=O)N(CC(F)(F)c2ccc(Cl)cc2)C(=O)N1CC(F)(F)c1ccc(Cl)cc1
EC50 [1]: 2 to 8 µM

O=C1CC(=O)N(CC(F)(F)c2ccc(C(F)(F)F)cc2)C(=O)N1CC(F)(F)c1ccc(C(F)(F)F)cc1
EC50 [1]: 2 to 8 µM

CC(C)C[C@H](NC(=O)[C@H](Cc1ccccc1)NC(=O)c1cnccn1)B(O)O [bortezomib]
sensitivity of PC12 cells to proteasome inhibition compared with MG132 [2]: Qualitatively similar results
